Laboratory results published in patent publication US11026427B2, “Microbiocidal oxadiazole derivatives” (SYNGENTA PARTICIPATIONS AG, priority 2016, dated 2021).

Assays:
[1] = test system: Uromyces viciae-fabae; assay: Uromyces viciae-fabae / field bean / leaf disc preventative (faba-bean rust); format: in vivo; conditions: foliar, 288 h, 100 ppm in the applied formulation, compared to untreated control, read-out: disease control
Experimental: (§1) Leaf disks or leaf segments of various plant species are cut from plants grown in a greenhouse. The cut leaf disks or segments are placed in multiwell plates (24-well format) onto water agar. The leaf disks are sprayed with a test solution before (preventative) or after (curative) inoculation. Compounds to be tested are prepared as DMSO solutions (max. 10 mg/ml) which are diluted to the appropriate concentration with 0.025% Tween20 just before spraying. The inoculated leaf disks or segments are incubated under defined conditions (temperature, relative humidity, light, etc.) according to the respective test system. A single evaluation of disease level is carried out 3 to 14 days after inoculation, depending on the pathosystem. Percent disease control relative to the untreated check leaf disks or segments is then calculated.
Field bean leaf discs are placed on water agar in multiwell plates (96-well format) and 10 μl of the formulated test compound diluted in acetone and a spreader pipetted onto the leaf disc. Two hours after application leaf discs are inoculated by spraying a spore suspension on the lower leaf surface. The leaf discs are incubated in a climate cabinet at 22° C. with 18 hour day and 70% relative humidity. The activity of a compound is assessed as percent disease control compared to untreated when an appropriate level of disease damage appears in untreated check leaf disks (12 days after application).
The following compounds at 100 ppm in the applied formulation give at least 80% disease control in this test when compared to untreated control leaf discs under the same conditions, which show extensive disease development.

[2] = test system: Phakopsora pachyrhizi; assay: Phakopsora pachyrhizi / soybean / leaf disc preventative (Asian soybean rust); format: in vivo; conditions: foliar, 200 ppm in the applied formulation, compared to untreated control, read-out: disease control
Experimental: as §1
Soybean leaf disks are placed on water agar in multiwell plates (24-well format) and sprayed with the formulated test compound diluted in water. One day after application leaf discs are inoculated by spraying a spore suspension on the lower leaf surface. After an incubation period in a climate cabinet of 24-36 hours in darkness at 20° C. and 75% rh leaf disc are kept at 20° C. with 12 h light/day and 75% rh. The activity of a compound is assessed as percent disease control compared to untreated when an appropriate level of disease damage appears in untreated check leaf disks (12 to 14 days after application).
(§2) The following compounds at 200 ppm in the applied formulation give at least 80% disease control in this test when compared to untreated control leaf disks under the same conditions, which show extensive disease development.

[3] = test system: Glomerella lacenarium (Colletotrichum lacenarium); assay: Glomerella lacenarium (Colletotrichum lacenarium) liquid culture / cucumber / preventative (anthracnose); format: cell-based; conditions: 20 ppm in the applied formulation, growth inhibition measured photometrically, compared to untreated control, read-out: disease control
Experimental: Mycelia fragments or conidia suspensions of a fungus prepared either freshly from liquid cultures of the fungus or from cryogenic storage, are directly mixed into nutrient broth. DMSO solutions of the test compound (max. 10 mg/ml) are diluted with 0.025% Tween20 by a factor of 50 and 10 μl of this solution is pipetted into a microtiter plate (96-well format). The nutrient broth containing the fungal spores/mycelia fragments is then added to give an end concentration of the tested compound. The test plates are incubated in the dark at 24° C. and 96% relative humidity. The inhibition of fungal growth is determined photometrically after 2 to 7 days, depending on the pathosystem, and percent antifungal activity relative to the untreated check is calculated.
Conidia of the fungus from cryogenic storage are directly mixed into nutrient broth (PDB—potato dextrose broth). After placing a (DMSO) solution of test compound into a microtiter plate (96-well format), the nutrient broth containing the fungal spores is added. The test plates are incubated at 24° C. and the inhibition of growth is measured photometrically 3 to 4 days after application.
The following compounds at 20 ppm in the applied formulation give at least 80% disease control in this test when compared to untreated control under the same conditions, which show extensive disease development.

[4] = test system: Puccinia recondita f. Sp. tritici; assay: Puccinia recondita f. sp. tritici / wheat / leaf disc preventative (brown rust); format: in vivo; conditions: foliar, 200 ppm in the applied formulation, compared to untreated control, read-out: disease control
Experimental: as §1, with “calculated. Wheat leaf segments cv. Kanzler were placed on agar in multiwell plates (24-well format) and sprayed with the formulated test compound diluted in water. The leaf disks were inoculated with a spore suspension of the fungus 1 day after application. The inoculated leaf segments were incubated at 19° C. and 75% relative humidity (rh) under a light regime of 12 hours light/12 hours darkness in a climate cabinet and the activity of a compound was assessed as percent disease control compared to untreated when an appropriate level of disease damage appears in untreated check leaf segments (7 to 9 days after application). The following compounds at 200 ppm in the applied formulation give at least 80% disease control in this test when compared to untreated control leaf disks under the same conditions, which show extensive disease development.” for “calculated.”

[5] = test system: Puccinia recondita f. Sp. tritici; assay: Puccinia recondita f. sp. tritici / wheat / leaf disc curative (brown rust); format: in vivo; conditions: foliar, 200 ppm in the applied formulation, compared to untreated control, read-out: disease control
Experimental: as §1
Wheat leaf segments cv. Kanzler are placed on agar in multiwell plates (24-well format). The leaf segments are then inoculated with a spore suspension of the fungus. Plates were stored in darkness at 19° C. and 75% relative humidity. The formulated test compound diluted in water was applied 1 day after inoculation. The leaf segments were incubated at 19° C. and 75% relative humidity under a light regime of 12 hours light/12 hours darkness in a climate cabinet and the activity of a compound was assessed as percent disease control compared to untreated when an appropriate level of disease damage appears in untreated check leaf segments (6 to 8 days after application).
as §2

Row | SMILES | melting point | pest or weed control at 100 ppm [1] | pest or weed control at 200 ppm [2] | inhibition of growth at 20 ppm [3] | pest or weed control at 200 ppm [4] | pest or weed control at 200 ppm [5]
1 | O=C(c1ccc(F)cc1)c1ccc(-c2noc(C(F)(F)F)n2)cc1 [Compound 1.1, (4-fluorophenyl)-[4-[5-(trifluoromethyl)-1,2,4-oxadiazol-3-yl]phenyl]methanone] | 125 to 135 °C | ≥ 80% | ≥ 80% | – | – | –
2 | CC(=O)c1ccc(-c2noc(C(F)(F)F)n2)cc1 [Compound 1.2, 1-[4-[5-(trifluoromethyl)-1,2,4-oxadiazol-3-yl]phenyl]ethanone] | 105 to 115 °C | ≥ 80% | – | – | – | –
3 | O=C(c1ccccc1)c1ccc(-c2noc(C(F)(F)F)n2)cc1 [Compound 1.3, phenyl-[4-[5-(trifluoromethyl)-1,2,4-oxadiazol-3-yl]phenyl]methanone] | 110 to 115 °C | ≥ 80% | ≥ 80% | ≥ 80% | – | –
4 | CC(C)(C)C(=O)c1ccc(-c2noc(C(F)(F)F)n2)cc1 [Compound 1.4, 2,2-dimethyl-1-[4-[5-(trifluoromethyl)-1,2,4-oxadiazol-3-yl]phenyl]propan-1-one] | – | ≥ 80% | – | – | – | –
5 | O=C(c1ccc(OC(F)(F)F)cc1)c1ccc(-c2noc(C(F)(F)F)n2)cc1 [Compound 1.6, [4-(trifluoromethoxy)phenyl]-[4-[5-(trifluoromethyl)-1,2,4-oxadiazol-3-yl]phenyl]methanone] | 104 to 107 °C | ≥ 80% | – | – | – | –
6 | CC#CC(=O)c1ccc(-c2noc(C(F)(F)F)n2)cc1 [Compound 1.7, 1-[4-[5-(trifluoromethyl)-1,2,4-oxadiazol-3-yl]phenyl]but-2-yn-1-one] | 84 to 87 °C | ≥ 80% | – | ≥ 80% | ≥ 80% | –
7 | C=CCC(=O)c1ccc(-c2noc(C(F)(F)F)n2)cc1 [Compound 1.8, 1-[4-[5-(trifluoromethyl)-1,2,4-oxadiazol-3-yl]phenyl]but-3-en-1-one] | 65 to 69 °C | ≥ 80% | – | ≥ 80% | – | –
8 | O=C(c1ccc(-c2noc(C(F)(F)F)n2)cc1)C1CC1 [Compound 1.9, cyclopropyl-[4-[5-(trifluoromethyl)-1,2,4-oxadiazol-3-yl]phenyl]methanone] | 58 to 62 °C | ≥ 80% | – | ≥ 80% | – | –
9 | CC(C)CC(=O)c1ccc(-c2noc(C(F)(F)F)n2)cc1 [Compound 1.10, 3-methyl-1-[4-[5-(trifluoromethyl)-1,2,4-oxadiazol-3-yl]phenyl]butan-1-one] | – | ≥ 80% | ≥ 80% | – | – | –
10 | C/C=C/CC(=O)c1ccc(-c2noc(C(F)(F)F)n2)cc1 [Compound 1.11, 1-[4-[5-(trifluoromethyl)-1,2,4-oxadiazol-3-yl]phenyl]pent-3-en-1-one] | – | ≥ 80% | ≥ 80% | ≥ 80% | – | –
11 | Cc1ccsc1C(=O)c1ccc(-c2noc(C(F)(F)F)n2)cc1 [Compound 1.12, (3-methyl-2-thienyl)-[4-[5-(trifluoromethyl)-1,2,4-oxadiazol-3-yl]phenyl]methanone] | – | ≥ 80% | ≥ 80% | ≥ 80% | – | –
12 | Cc1ccnc(C(=O)c2ccc(-c3noc(C(F)(F)F)n3)cc2)c1 [Compound 1.27, (4-methyl-2-pyridyl)-[4-[5-(trifluoromethyl)-1,2,4-oxadiazol-3-yl]phenyl]methanone] | 76 to 81 °C | – | ≥ 80% | ≥ 80% | ≥ 80% | ≥ 80%
13 | CCCCC(O)c1ccc(-c2noc(C(F)(F)F)n2)cc1 (stereo not drawn) [Compound 2.3, 1-[4-[5-(trifluoromethyl)-1,2,4-oxadiazol-3-yl]phenyl]pentan-1-ol] | – | ≥ 80% | – | – | – | –
14 | C=C(C)C(O)c1ccc(-c2noc(C(F)(F)F)n2)cc1 (stereo not drawn) [Compound 2.8, 2-methyl-1-[4-[5-(trifluoromethyl)-1,2,4-oxadiazol-3-yl]phenyl]prop-2-en-1-ol] | – | ≥ 80% | ≥ 80% | ≥ 80% | – | –
15 | C/C=C/CC(O)c1ccc(-c2noc(C(F)(F)F)n2)cc1 (stereo not drawn) [Compound 2.9, 1-[4-[5-(trifluoromethyl)-1,2,4-oxadiazol-3-yl]phenyl]pent-3-en-1-ol] | – | ≥ 80% | – | ≥ 80% | – | –

Further lines, with some results ahead:

Row | melting point | SMILES | pest or weed control at 100 ppm [1] | pest or weed control at 200 ppm [2] | inhibition of growth at 20 ppm [3] | pest or weed control at 200 ppm [4] | pest or weed control at 200 ppm [5]
16 | 67 to 70 °C | COc1ccc(C(O)c2ccc(-c3noc(C(F)(F)F)n3)cc2)cc1 (stereo not drawn) [Compound 2.4, (4-methoxyphenyl)-[4-[5-(trifluoromethyl)-1,2,4-oxadiazol-3-yl]phenyl]methanol] | ≥ 80% | ≥ 80% | – | – | –
17 | 90 to 93 °C | OC(c1ccc(OC(F)(F)F)cc1)c1ccc(-c2noc(C(F)(F)F)n2)cc1 (stereo not drawn) [Compound 2.5, [4-(trifluoromethoxy)phenyl]-[4-[5-(trifluoromethyl)-1,2,4-oxadiazol-3-yl]phenyl]methanol] | ≥ 80% | – | ≥ 80% | – | –
18 | 69 to 73 °C | OC(c1ccc(-c2noc(C(F)(F)F)n2)cc1)C1CC1 (stereo not drawn) [Compound 2.7, cyclopropyl-[4-[5-(trifluoromethyl)-1,2,4-oxadiazol-3-yl]phenyl]methanol] | ≥ 80% | – | ≥ 80% | ≥ 80% | –
19 | 68 to 73 °C | Cc1ccsc1C(O)c1ccc(-c2noc(C(F)(F)F)n2)cc1 (stereo not drawn) [Compound 2.10, (3-methyl-2-thienyl)-[4-[5-(trifluoromethyl)-1,2,4-oxadiazol-3-yl]phenyl]methanol] | ≥ 80% | ≥ 80% | ≥ 80% | – | –
20 | 84 to 90 °C | Cc1cc(C(O)c2ccc(-c3noc(C(F)(F)F)n3)cc2)on1 (stereo not drawn) [Compound 2.14, (3-methylisoxazol-5-yl)-[4-[5-(trifluoromethyl)-1,2,4-oxadiazol-3-yl]phenyl]methanol] | – | ≥ 80% | ≥ 80% | ≥ 80% | ≥ 80%
